# Reference: patent US8399495B2, “Talarazole metabolites” (Stiefel Laboratories, Inc., priority 2006, dated 2013)
# Legend:
# [1] = Excretion of radioactivity (mass balance), dog; format: in vivo; conditions: 0-192 h, oral 5 mg/kg; for % in Urine (percent of dose recovered, total radioactivity) / % in Feces (percent of dose recovered, total radioactivity): 5 mg/kg
# Description: (§1) Mouse, rat, dog and human were the species used for the safety evaluations of talarozole. More specifically, the disposition of ^14C-labeled talarozole was examined in mice, rats, dogs and humans after oral administration to provide information regarding the absorption, metabolism and excretion of talarozole.
# (§2) Male and female CD-1 mice (19-29 g, n=3/sex/timepoint for blood sampling, n=3/sex for mass balance), Sprague Dawley rats (0.205-0.237 kg, n=3/sex/timepoint for blood sampling, n=3/sex for mass balance) and beagle dogs (7-12 kg, n=3) were given a single oral dose of ^14C-labeled talarozole in 20% hydroxyl propyl B-cyclodextrin at 5 mg/kg. Healthy human male volunteers (76.6-107.9 kg, n=5) were dosed with a single oral dose of 4 mg ^14C-labeled rambazole in ethanol. Blood samples were collected at selected timepoints after dosing and plasma was prepared. Urine and feces were collected for 2, 7 and 8 days. For the human study, up to 288 hours post-dose and semen samples were obtained 2 and 4 hours post-dose. Radioactivity in various matrices were measured by liquid scintillation counting (LSC). Select plasma, urine and fecal samples were subjected to metabolite radioprofiling and characterization, and in the human study, semen samples. Metabolite radioprofiling was accomplished using HPLC with fraction collection followed by solid scintillation counting (Packard TopCount—see representative HPLC run data below). Radioactivity peaks were integrated and the percent distribution of individual metabolites in each sample was determined. Metabolite characterization and identification were accomplished by LC/MS (Finnigan MAT LCQ in positive or negative ESI mode) in conjunction with an appropriate radioactive monitor (RAM). For all species, plasma, urine and fecal samples were pooled across animals and analyzed. Plasma was analyzed at several time-points out to 24 hours. Urine was analyzed over one time-interval (0-24 hours for mouse, 0-48 hours for rat, 0-72 hours for dog, and for in the human study, 0-12, 12-24, 24-48, 0-48 hours. Feces was analyzed over 2-3 time intervals (0-24 and 24-48 hours for mouse and rat; 0-24, 24-48, and 48-72 hours for male dogs; and 24-48, 48-72, and 72-96 hours for female dogs). In the human study, feces were analyzed for 0-48, 48-96, 96-144, 144-192, 192-288, 0-144, 144-288 and 0-288 hours. PK parameters for ^14C-labeled talarozole radioactivity was determined from the mean (mouse and rat) or individual (dog and human) plasma concentration versus time data. PK parameter values were determined by non-compartmental methods using WinNonlin™. • HPLC data for separations described in Example 1: • LC system: Waters 2695 Separations Module • Analytic column: C18 column, 4.6×150 mm, 3 μm • Flow rate: 1.0 mL/min • Mobile phase A: 2% HCOOH in H2O (pH 3.2) • Mobile phase B: CH3CN • Gradient: […]
# [2] = Metabolite radioprofiling of plasma, urine and feces, mouse; format: in vivo; conditions: for Feces % Dose as the component / Plasma 0-24 h AUC (% Sample) / Plasma 0-24 h AUC of the radioactive component / Urine % Dose as the component: mouse (5 mg/kg) oral 14C-talarozole; for Urine % Dose as the component: urine 0-24 h; for Plasma 0-24 h AUC, total radioactivity: mouse (5 mg/kg)
# Description: as §2
# [3] = Pharmacokinetics of radioactivity in plasma after oral 14C-labeled talarozole, dog; format: in vivo; conditions: single oral 5 mg/kg; for AUC0-t: 0-168 h
# Description: as §1
# as §2, with “Metabolite characterization and identification were accomplished by LC/MS (Finnigan MAT LCQ in positive or negative ESI mode) in conjunction with an appropriate radioactive monitor (RAM).” left out
# [4] = Metabolite radioprofiling of plasma, urine and feces, dog; format: in vivo; conditions: for Feces % Dose as the component / Plasma 0-24 h AUC (% Sample) / Plasma 0-24 h AUC of the radioactive component: dog (5 mg/kg) oral 14C-talarozole; for Plasma 0-24 h AUC, total radioactivity: dog (5 mg/kg)
# Description: as §2
# [5] = Pharmacokinetics of radioactivity in plasma after oral 14C-labeled talarozole, human; format: in vivo; conditions: male, single oral 4 mg
# Description: as §1
# Male and female CD-1 mice (19-29 g, n=3/sex/timepoint for blood sampling, n=3/sex for mass balance), Sprague Dawley rats (0.205-0.237 kg, n=3/sex/timepoint for blood sampling, n=3/sex for mass balance) and beagle dogs (7-12 kg, n=3) were given a single oral dose of ^14C-labeled talarozole in 20% hydroxyl propyl B-cyclodextrin at 5 mg/kg. […] Radioactivity in various matrices were measured by liquid scintillation counting (LSC). […] Radioactivity peaks were integrated and the percent distribution of individual metabolites in each sample was determined. […] For all species, plasma, urine and fecal samples were pooled across animals and analyzed. Plasma was analyzed at several time-points out to 24 hours. […] PK parameter values were determined by non-compartmental methods using WinNonlin™. • HPLC data for separations described in Example 1: • LC system: Waters 2695 Separations Module • Analytic column: C18 column, 4.6×150 mm, 3 μm • Flow rate: 1.0 mL/min • Mobile phase A: 2% HCOOH in H2O (pH 3.2) • Mobile phase B: CH3CN • Gradient: […]
# [6] = Pharmacokinetics of radioactivity in plasma after oral 14C-labeled talarozole, mouse; format: in vivo; conditions: single oral 5 mg/kg; for AUC0-t: 0-48 h
# Description: as §1
# as §2, with “Metabolite characterization and identification were accomplished by LC/MS (Finnigan MAT LCQ in positive or negative ESI mode) in conjunction with an appropriate radioactive monitor (RAM).” left out
# [7] = system: IP-10; experiment: Suppression of IP-10 production by IFNγ-activated human epidermal keratinocytes; format: cell-based
# Description: Talarozole Metabolites for Suppression of IP-10 Production by IFNγ-Activated Human Epidermal Keratinocytes
# IP-10, a member of the CXC subfamily of chemokines, attracts T-lymphocytes and natural killer cells. […] In particular, epidermal keratinocytes of psoriatic lesions express elevated levels of IP-10. Suppression of IP-10 expression by activated keratinocytes may represent a novel target for therapeutic intervention of inflammatory skin disorders.
# [8] = Pharmacokinetics of radioactivity in plasma after oral 14C-labeled talarozole, rat; format: in vivo; conditions: single oral 5 mg/kg; for AUC0-t: 0-48 h
# Description: as §1
# as §2, with “Metabolite characterization and identification were accomplished by LC/MS (Finnigan MAT LCQ in positive or negative ESI mode) in conjunction with an appropriate radioactive monitor (RAM).” left out
# [9] = Metabolite radioprofiling of plasma, urine and feces, rat; format: in vivo; conditions: for Feces % Dose as the component / Plasma 0-24 h AUC (% Sample) / Plasma 0-24 h AUC of the radioactive component / Urine % Dose as the component: rat (5 mg/kg) oral 14C-talarozole; for Urine % Dose as the component: urine 0-48 h; for Plasma 0-24 h AUC, total radioactivity: rat (5 mg/kg)
# Description: as §2
# [10] = Metabolite radioprofiling of plasma, urine, feces and semen, human; conditions: in vivo
# Description: as §2
# [11] = Excretion of radioactivity (mass balance), rat; format: in vivo; conditions: 0-168 h, oral 5 mg/kg; for % in Feces (percent of dose recovered, total radioactivity) / % in Urine (percent of dose recovered, total radioactivity): 5 mg/kg
# Description: as §1, §2
# [12] = female, listed as 14C-Talarozole
# [13] = female, listed as 14C-labeled talarozole
# [14] = male, listed as 14C-labeled talarozole
smiles,measurement,setting,value
"CCC(CC)[C@H](c1ccc(Nc2nc3ccccc3s2)cc1)n1cncn1 [Talarozole, (R)—N-[4-[2-ethyl-1-(1H-1,2,4-triazole-1-yl)butyl]phenyl]-2-benzothiazolamine]","% in Urine (percent of dose recovered, total radioactivity)",[1]; listed as 14C-Talarozole,4.13 M %
same,"% in Urine (percent of dose recovered, total radioactivity)",[1]; listed as 14C-labeled talarozole,4.1%
same,% in Cage Rinse (percent of dose recovered),[1]; female,0.5%
same,Total % Recovered,[1]; female,92.4%
same,"% in Feces (percent of dose recovered, total radioactivity)",[1]; [12],89.00 F %
same,"% in Urine (percent of dose recovered, total radioactivity)",[1]; [12],2.89 F %
same,"% in Feces (percent of dose recovered, total radioactivity)",[1]; [13],89.0%
same,"% in Urine (percent of dose recovered, total radioactivity)",[1]; [13],2.9%
same,% in Cage Rinse (percent of dose recovered),[1]; male,0.8%
same,Total % Recovered,[1]; male,93.6%
same,"% in Feces (percent of dose recovered, total radioactivity)","[1]; male, listed as 14C-Talarozole",88.66 M %
same,"% in Feces (percent of dose recovered, total radioactivity)",[1]; [14],88.7%
same,Feces % Dose as the component,[2]; female,7.04 % Dose
same,Plasma 0-24 h AUC (% Sample),[2]; female,21.48%
same,Plasma 0-24 h AUC of the radioactive component,[2]; female,1420.2 ng·h/g
same,Urine % Dose as the component,[2]; female,No unchanged ^14C-labeled talarozole was detected
same,Feces % Dose as the component,[2]; male,6.11 % Dose
same,Plasma 0-24 h AUC (% Sample),[2]; male,15.15%
same,Plasma 0-24 h AUC of the radioactive component,[2]; male,1377.5 ng·h/g
same,Urine % Dose as the component,[2]; male,No unchanged ^14C-labeled talarozole was detected
same,"Plasma 0-24 h AUC, total radioactivity",[2]; female,66113.0 ng*hr/g F
same,"Plasma 0-24 h AUC, total radioactivity",[2]; male,9092.5 ng·h/g/M
same,AUC0-∞,[3]; female,21902 hr-ng equiv/g
same,AUC0-t,[3]; female,21388 hr-ng equiv/g
same,AUC0-∞,[3]; male,19970 hr-ng equiv/g
same,AUC0-t,[3]; male,19555 hr-ng equiv/g
same,Feces % Dose as the component,[4]; female,1.59 % Dose
same,Plasma 0-24 h AUC (% Sample),[4]; female,23.20%
same,Plasma 0-24 h AUC of the radioactive component,[4]; female,4228.0 ng·h/g
same,Feces % Dose as the component,[4]; male,1.22 % Dose
same,Plasma 0-24 h AUC (% Sample),[4]; male,24.24%
same,Plasma 0-24 h AUC of the radioactive component,[4]; male,4132.9 ng·h/g
same,"Plasma 0-24 h AUC, total radioactivity",[4]; female,18225 ng*hr/g F
same,"Plasma 0-24 h AUC, total radioactivity",[4]; male,17047 ng·h/g/M
same,AUC0-∞,[5],301 hr-ng equiv/g
same,AUC0-t,[5]; 0-48 h,269 hr-ng equiv/g
same,AUC0-∞,[6]; female,6767 hr-ng equiv/g
same,AUC0-t,[6]; female,6632 hr-ng equiv/g
same,AUC0-∞,[6]; male,10276 hr-ng equiv/g
same,AUC0-t,[6]; male,10215 hr-ng equiv/g
same,IP-10 expression,[7],down regulate dose-dependently
same,AUC0-∞,[8]; female,7810 hr-ng equiv/g
same,AUC0-t,[8]; female,7670 hr-ng equiv/g
same,AUC0-∞,[8]; male,6960 hr-ng equiv/g
same,AUC0-t,[8]; male,6720 hr-ng equiv/g
same,Feces % Dose as the component,[9]; female,4.60 % Dose
same,Plasma 0-24 h AUC (% Sample),[9]; female,39.17%
same,Plasma 0-24 h AUC of the radioactive component,[9]; female,3523.2 ng·h/g
same,Urine % Dose as the component,[9]; female,1.90 % Dose
same,Feces % Dose as the component,[9]; male,5.34 % Dose
same,Plasma 0-24 h AUC (% Sample),[9]; male,11.05%
same,Plasma 0-24 h AUC of the radioactive component,[9]; male,778.38 ng·h/g
same,Urine % Dose as the component,[9]; male,0.10 % Dose
same,"Plasma 0-24 h AUC, total radioactivity",[9]; female,8995.6 ng*hr/g F
same,"Plasma 0-24 h AUC, total radioactivity",[9]; male,7045.6 ng·h/g/M
same,Plasma 0-24 h AUC of the radioactive component,"[10]; human, po, 0.067 mg/kg",12.74 ng·h/g
same,Semen (radioactive component in semen samples),[10],minor radioactive components
same,Urine % Dose as the component,[10],not found
same,"Plasma 0-24 h AUC, total radioactivity","[10]; male, human, 0.067 mg/kg",211.3 ng·h/g
same,"Plasma 0-24 h AUC (% Sample), % of total plasma radioactivity","[10]; male, human, po, 0.067 mg/kg",6.03%
same,% in Cage Rinse (percent of dose recovered),[11]; female,3.88%
same,Total % Recovered,[11]; female,95.4%
same,"% in Feces (percent of dose recovered, total radioactivity)",[11]; [12],77.57 F %
same,"% in Urine (percent of dose recovered, total radioactivity)",[11]; [12],10.07 F %
same,"% in Feces (percent of dose recovered, total radioactivity)",[11]; [13],77.5%
same,"% in Urine (percent of dose recovered, total radioactivity)",[11]; [13],10.1%
same,% in Cage Rinse (percent of dose recovered),[11]; male,4.01%
same,Total % Recovered,[11]; male,95.2%
same,"% in Feces (percent of dose recovered, total radioactivity)","[11]; male, listed as 14C-Talarozole",77.53 M %
same,"% in Urine (percent of dose recovered, total radioactivity)","[11]; male, listed as 14C-Talarozole",6.33 M %
same,"% in Feces (percent of dose recovered, total radioactivity)",[11]; [14],77.5%
same,"% in Urine (percent of dose recovered, total radioactivity)",[11]; [14],6.3%
